Assays:
BI-2493 [1] = compound: T1, C[C@H]1CNCCN1c1nccc(-c2noc3c2CCC[C@@]32CCCc3sc(N)c(C#N)c32)n1 [BI-2493]; conditions: 5 days
Procedure: (§1)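 PRISM pooled barcoded cancer cell line viability screen (Broad Institute) with BI-2493 at 8 doses in threefold dilutions from 0.00457 to 10 µmol/L, 5-day treatment; curves fitted per cell line. IC50 is undefined (placeholder) for resistant lines. AUC is capped at 1, and sensitivity is reported as 1 − AUC.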

BI-2493 [2] = compound: T1, BI-2493; assay: 1 - AUC of viability dose-response curve (sensitivity) (fraction); higher = more sensitive; conditions: 5 days
Procedure: as §1

Test System | IC50 of cell viability (BI-2493 [1]) | 1 - AUC of viability dose-response curve (BI-2493 [2])
SW620_LARGE_INTESTINE | 1.1 µM | 0.313
SW626_LARGE_INTESTINE | 4.08 µM | 0.124
SW756_CERVIX | 5.46 µM | 0.14
SW780_URINARY_TRACT | 3.46 µM | 0.22
SW837_LARGE_INTESTINE | 5.95 µM | 0.0901
SW900_LUNG | 8.99 µM | 0.115
SW948_LARGE_INTESTINE | 7.49 µM | 0.167
SW954_CERVIX | 3.72 µM | 0.117
SW1088_CENTRAL_NERVOUS_SYSTEM | 8.8 µM | 0.159
SW1116_LARGE_INTESTINE | 2.37 µM | 0.214
SW1353_BONE | > 10 µM | 0.032
SW1463_LARGE_INTESTINE | 4.74 µM | 0.177
SW1573_LUNG | 7.72 µM | 0.108
SW1710_URINARY_TRACT | 7.21 µM | 0.0685
SW1783_CENTRAL_NERVOUS_SYSTEM | 7.49 µM | 0.0474
SW1990_PANCREAS | 0.926 µM | 0.324
T3M5_THYROID | 4.56 µM | 0.162
T3M10_LUNG | 5.96 µM | 0.0884
T24_URINARY_TRACT | > 10 µM | 0.047
T47D_BREAST | 4.07 µM | 0.0937
TALL1_HAEMATOPOIETIC_AND_LYMPHOID_TISSUE | 6.69 µM | 0.0755
TANOUE_HAEMATOPOIETIC_AND_LYMPHOID_TISSUE | 9.36 µM | 0.0128
TASK1_CENTRAL_NERVOUS_SYSTEM | 7.76 µM | 0.0438
TC32_BONE | 8.86 µM | 0.0484

Test System | IC50 of cell viability (BI-2493 [1]) | 1 - AUC of viability dose-response curve (BI-2493 [2])
TC71_BONE | 9.44 µM | 0.0115
TC106_BONE | 5.11 µM | 0.108
TC205_BONE | > 10 µM | 0.082
TCCPAN2_PANCREAS | 8.86 µM | 0.0795
TCCSUP_URINARY_TRACT | 9.48 µM | 0.0247
TE1_OESOPHAGUS | 9.58 µM | 0.0344
TE4_OESOPHAGUS | 4.83 µM | 0.0912
TE5_OESOPHAGUS | 9.08 µM | 0.0423
TE6_OESOPHAGUS | 4.43 µM | 0.0969
TE8_OESOPHAGUS | > 10 µM | 0.0526
TE9_OESOPHAGUS | 5.83 µM | 0.107
TE10_OESOPHAGUS | > 10 µM | 0.146
TE11_OESOPHAGUS | 4.31 µM | 0.102
TE14_OESOPHAGUS | 9.66 µM | 0.00721
TE15_OESOPHAGUS | 0.153 µM | 0.381
TE617T_SOFT_TISSUE | 3.75 µM | 0.193
TEN_ENDOMETRIUM | 9.58 µM | 0.00891
TF1_HAEMATOPOIETIC_AND_LYMPHOID_TISSUE | 0.352 µM | 0.427
TFK1_BILIARY_TRACT | 2.89 µM | 0.173
TGBC1TKB_BILIARY_TRACT | 7.28 µM | 0.0559
TGBC18TKB_LARGE_INTESTINE | 9.22 µM | 0.103
TGBC52TKB_BILIARY_TRACT | 1.47 µM | 0.255
TGW_AUTONOMIC_GANGLIA | 4.67 µM | 0.123
TM31_CENTRAL_NERVOUS_SYSTEM | 8.57 µM | 0.0846

Test System | IC50 of cell viability (BI-2493 [1]) | 1 - AUC of viability dose-response curve (BI-2493 [2])
TM87_SOFT_TISSUE | 5.06 µM | 0.26
TOV21G_OVARY | 5.42 µM | 0.114
TT1TKB_LARGE_INTESTINE | 1.08 µM | 0.312
TT2609C02_THYROID | > 10 µM | 0.00366
TTC442_SOFT_TISSUE | 5.84 µM | 0.0621
TTC549_SOFT_TISSUE | 5.34 µM | 0.113
TTC642_SOFT_TISSUE | 7.08 µM | 0.0875
TTC709_SOFT_TISSUE | 4.96 µM | 0.16
TT_OESOPHAGUS | 5.9 µM | 0.191
TT_THYROID | 6.45 µM | 0.0835
TUHR4TKB_KIDNEY | 3.62 µM | 0.123
TYKNU_OVARY | 9.48 µM | 0.0105
U2OS_BONE | > 10 µM | 0.215
U87MG_CENTRAL_NERVOUS_SYSTEM | > 10 µM | 0.111
U118MG_CENTRAL_NERVOUS_SYSTEM | 6.46 µM | 0.0721
U178_CENTRAL_NERVOUS_SYSTEM | 7.8 µM | 0.139
U266B1_HAEMATOPOIETIC_AND_LYMPHOID_TISSUE | 7.47 µM | 0.0732
U343_CENTRAL_NERVOUS_SYSTEM | 6.54 µM | 0.0705
U937_HAEMATOPOIETIC_AND_LYMPHOID_TISSUE | 3.77 µM | 0.17
U2904_HAEMATOPOIETIC_AND_LYMPHOID_TISSUE | 9.63 µM | 0.0108
U2973_HAEMATOPOIETIC_AND_LYMPHOID_TISSUE | 0.921 µM | 0.33
UACC62_SKIN | 9.21 µM | 0.0436
UACC257_SKIN | 7.78 µM | 0.0407
UBLC1_URINARY_TRACT | 4.3 µM | 0.137

Test System | IC50 of cell viability (BI-2493 [1]) | 1 - AUC of viability dose-response curve (BI-2493 [2])
UMRC3_KIDNEY | 4.74 µM | 0.106
UMRC7_KIDNEY | 6.09 µM | 0.0724
UMUC1_URINARY_TRACT | 2.29 µM | 0.226
UMUC5_URINARY_TRACT | 7.6 µM | 0.0622
UMUC7_URINARY_TRACT | > 10 µM | 0.14
UMUC10_URINARY_TRACT | 9.49 µM | 0.0119
UMUC11_URINARY_TRACT | 6.87 µM | 0.101
UO31_KIDNEY | 9.54 µM | 0.0602
UPCISCC072_UPPER_AERODIGESTIVE_TRACT | 8.57 µM | 0.0294
UPCISCC111_UPPER_AERODIGESTIVE_TRACT | 4.12 µM | 0.158
UPCISCC116_UPPER_AERODIGESTIVE_TRACT | 5.74 µM | 0.118
UW228_CENTRAL_NERVOUS_SYSTEM | 4.79 µM | 0.0946
VAESBJ_SOFT_TISSUE | 9.61 µM | 0.00971
VAL_HAEMATOPOIETIC_AND_LYMPHOID_TISSUE | 3.46 µM | 0.136
VMCUB1_URINARY_TRACT | 3.76 µM | 0.15
VMRCRCW_KIDNEY | 5.59 µM | 0.0854
VMRCRCZ_KIDNEY | 6.92 µM | 0.0774
WAOSEL_HAEMATOPOIETIC_AND_LYMPHOID_TISSUE | 9.74 µM | 0.00836
WERIRB1_AUTONOMIC_GANGLIA | 9.33 µM | 0.052
WM88_SKIN | 8.79 µM | 0.0214
WM793_SKIN | 5.47 µM | 0.0739
WM983B_SKIN | 7.98 µM | 0.038

From the supplement of paper PMC11962398
